These results are taken from article PMC9181987, “Disclosing the Potential of Fluorinated Ionic Liquids as Interferon-Alpha 2b Delivery Systems” (Nanomaterials, 2022).

Molecules are shown by their SMILES.

For series [1], the target named is T1, IFN-α 2b (Homo sapiens, UniProt P01563).
T1 construct: purchased Sigma-Aldrich SRP4595; host or cells: E. coli
As to the kind of experiment: Microscale thermophoresis (MST) binding affinity of FILs with labelled IFN-α 2b. Particulars: for Kd: labelled IFN-α 2b 2.7 μM, 5 mM NaH2PO4 pH 7.4, 25 °C, ± = Kd confidence of the fitting. The protocol:
Several dilution series of 16 samples of 20 μL were prepared in triplicate for each studied system. All the solutions were prepared in the buffer of the protein, 5 mM of NaH2PO4 (pH = 7.4), and PCR tubes. In the first tube (1 out 16) 20 μL of FIL stock solution was added at twofold the maximum concentration defined for each assay. In the remaining 15 tubes, 10 μL of buffer was added, followed by the series dilution of the FIL. […] The selected concentrations cover the range where the distinct CACs are formed in each FIL. The excitation power was determined by a pre-test and set to 20% whereas the MST power was set to medium (standard). The assays were executed in standard capillaries and triplicates. The results were processed using the MO.Affinity Analysis v2.3 software (NanoTemper Technologies, Munich, Germany).
In the process of labelling, commonly, one amine per protein is labelled, statistically distributing the position of the dye. […] As explained in the experimental section, in each run of MST, a maximum concentration is chosen and is consecutively diluted in 16 capillaries.
(In general: In MST a laser heats a spot of the sample, and binding alters the fluorescence response.)

For series [2], the target named is T1, IFN-α 2b. Description: Intrinsic fluorescence spectroscopy of IFN-α 2b with FILs (λmax shift, Stern–Volmer quenching). It is filed as binding. The protocol:
The concentrations were chosen to cover the range where the different aggregates of the FILs are formed. Samples, equilibrated for 30 min at room temperature, and 400 μL of each solution were transferred to a quartz cuvette of 10 mm pathlength and excited at 280 nm, collecting the fluorescence intensity in a wavelength range of 300 to 450 nm. The width of the excitation and emission slit was set to 5 nm for both cases. The spectra of FIL solutions (blanks) were discounted to the spectra of FIL + protein samples to avoid any possible effect of FIL concentration increment in the fluorescence intensity.
A very well-known equation, the Stern–Volmer, was used to characterize the quenching occurring in this region. This equation characterizes the collisional quenching that can occur when the excited state of the fluorophore is disabled due to contact with another molecule (quencher), without chemical alteration. Therefore, the collisional quenching is described by:(11) F0/F=1+K[Q]=1+kqτ0[Q] where F0 and F are the fluorescence intensities of the fluorophore in the absence and presence of the quencher, respectively, K is the Stern–Volmer quenching constant, kq is the biomolecular quenching constant, τ0 is the unquenched lifetime, and [Q] is the quencher concentration. […] This value gives information on the sensitivity of the fluorophore to a quencher.

The nature of series [3]: Dynamic light scattering: aggregate size and polydispersity index. It is filed as physicochemical. Particulars: 150 mM NaH2PO4, 25°C. As for the experimental part: These concentrations were chosen to comprise two different aggregates of each FIL, above the 1st CAC and the 3rd CAC. […] Therefore, 20 μL was transferred into a quartz cell of 10 mm pathlength and measured at 25 °C.
Moreover, the polydispersity index (PdI) was obtained by DLS which determines the heterogeneity of the sample in the function of the size.

Details of series [4]: method as in doi:10.5772/INTECHOPEN.96336, doi:10.1016/j.molliq.2022.119285, PMID 25580898. Particulars: cited from earlier work.
The conditions of series [5]: cited from earlier work.

For orientation: Kd means the constant that tells how readily two partners part at equilibrium. Higher therefore signals a looser complex.

T1 sequence (P01563 24-188): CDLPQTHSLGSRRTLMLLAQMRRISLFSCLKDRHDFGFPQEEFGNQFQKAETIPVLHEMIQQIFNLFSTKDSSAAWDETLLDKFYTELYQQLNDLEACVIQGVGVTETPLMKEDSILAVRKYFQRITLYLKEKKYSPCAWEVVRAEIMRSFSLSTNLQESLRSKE

As to `C[N+](C)(C)CCO.O=S(=O)([O-])C(F)(F)C(F)(F)C(F)(F)C(F)(F)F` [[N1112(OH)][C4F9SO3], (2-Hydroxyethyl)trimethylammonium perfluorobutanesulfonate], the “binding to IFN-α 2b (MST)” value on IFN-α 2b [1] (four runs, maximum concentrations 15, 35, 70, 375 mM) is “binding only occurs for the runs where concentrations were above the 2nd and 3rd CAC”. On IFN-α 2b [2] (IFN-α 2b 20 μg/mL, region ~14 mM to ~110 mM FIL, 5 mM NaH2PO4 pH 7.4, excitation 280 nm), the “Stern–Volmer quenching constant K” value was 0.00195 mM⁻¹. For the same compound, the “red shift of λmax” value at IFN-α 2b [2] (concentration close to the 3rd CAC, IFN-α 2b 20 μg/mL) is on record as 3 nm; on IFN-α 2b [2] (concentrations above 384 mM, IFN-α 2b 20 μg/mL), “up to 8 nm”. Besides, the “biomolecular quenching constant kq” value at IFN-α 2b [2] (from K and τ0 of IFN-α 2b) was found to be 6.61e+08 M⁻¹ s⁻¹. In addition, the results for the “Polydispersity index (PdI)” value in series [3] (29.8 mM FIL) and in series [3] (248.0 mM FIL) were 0.784 and 0.543, respectively. The miscibility in water entry in series [4] is “full miscibility in water”. The toxicity result in series [5] is “negligible toxicity”.
In the case of `O=S(=O)(O)C(F)(F)C(F)(F)C(F)(F)C(F)(F)F` [[N1112(OH)][C4F9SO3], (2-Hydroxyethyl)trimethylammonium perfluorobutanesulfonate], the Kd came to 0.000597 mM on IFN-α 2b [1] (assay 70 − 2.1 × 10^−3 mM FIL) and 54.7 ± 36.9 mM on IFN-α 2b [1] (assay 375 − 1.1 × 10^−2 mM FIL).
